From the NIST ThermoML archive (doi:10.1016/j.fluid.2008.09.004)

Key:
[1] = 101.33 kPa, Liquid; for speed of sound: Sing-around technique in a fixed-path interferometer; for mass density: Vibrating tube method
[2] = molar heat capacity at constant pressure; details: 101.33 kPa, Liquid, Small sample (50 mg) DSC
[3] = excess molar enthalpy (molar enthalpy of mixing); xn = mol fraction of the nth substance listed; details: 303.15 K, 101 kPa, Liquid, Calvet calorimetry

CCCCn1cc[n+](C)c1.O=S(=O)([O-])C(F)(F)F [1-butyl-3-methylimidazolium trifluoromethanesulfonate]
Details	mass density, [1] [kg/m3]	molar heat capacity at constant pressure, [2] [J/K/mol]	speed of sound, [1] [m/s]
293.15 K	1301.6	421.6	1403.4
298.15 K	1297.6	424.1	1392.1
303.15 K	1293.7	426.7	1380.9
308.15 K	1289.7	429.5	1369.8
313.15 K	1285.8	432.4	1358.8
318.15 K	1281.9	435.5	1348.1

CCO [ethanol]
Details	mass density, [1] [kg/m3]	molar heat capacity at constant pressure, [2] [J/K/mol]	speed of sound, [1] [m/s]
293.15 K	789.6	111.3	1159.5
298.15 K	785.3	113.3	1142.5
303.15 K	781	115.3	1125.5
308.15 K	776.7	117.5	1108.6
313.15 K	772.3	119.7	1091.8
318.15 K	767.8	122.1	1075.1

CCCC[n+]1cccc(C)c1.F[B-](F)(F)F [1-butyl-3-methylpyridinium tetrafluoroborate]
[1]
Details	speed of sound [m/s]
293.15 K	1599.8
298.15 K	1587
303.15 K	1574.8
308.15 K	1562.6
313.15 K	1550.7
318.15 K	1538.9

CCOS(=O)(=O)[O-].CCn1cc[n+](C)c1 [1-ethyl-3-methylimidazolium ethyl sulfate]
Details	mass density, [1] [kg/m3]	molar heat capacity at constant pressure, [2] [J/K/mol]
293.15 K	1240.6	392.2
298.15 K	1237.2	394.4
303.15 K	1233.8	396.8
308.15 K	1230.4	399.3
313.15 K	1227	402
318.15 K	1223.7	404.9

CCCC[n+]1cccc(C)c1.F[B-](F)(F)F [1-butyl-3-methylpyridinium tetrafluoroborate] + CCO
[3]
Details	excess molar enthalpy [kcal/mol]
x1 = 0.0306	0.132
x1 = 0.1031	0.324
x1 = 0.1976	0.483
x1 = 0.3036	0.588
x1 = 0.3966	0.621
x1 = 0.5083	0.596
x1 = 0.6001	0.535
x1 = 0.692	0.45
x1 = 0.8061	0.301
x1 = 0.8847	0.187

CCCCn1cc[n+](C)c1.COS(=O)(=O)[O-] [1-butyl-3-methylimidazolium methyl sulfate]
Details	mass density, [1] [kg/m3]	molar heat capacity at constant pressure, [2] [J/K/mol]
293.15 K	1210.7	413.7
298.15 K	1207.4	416.2
303.15 K	1204.1	418.5
308.15 K	1200.8	420.9
313.15 K	1197.5	423.3
318.15 K	1194.2	425.6

CCn1cc[n+](C)c1.O=S(=O)([O-])C(F)(F)F [1-ethyl-3-methylimidazolium trifluoromethanesulfonate]
Details	mass density, [1] [kg/m3]	molar heat capacity at constant pressure, [2] [J/K/mol]
293.15 K	1389.5	361.1
298.15 K	1385.3	363.2
303.15 K	1381.1	365.3
308.15 K	1376.9	367.4
313.15 K	1372.7	369.6
318.15 K	1368.6	371.8

CCCCn1cc[n+](C)c1.F[B-](F)(F)F [1-butyl-3-methylimidazolium tetrafluoroborate]
Details	mass density, [1] [kg/m3]	molar heat capacity at constant pressure, [2] [J/K/mol]
293.15 K	1207.6	359.8
298.15 K	1204.1	363.1
303.15 K	1200.5	366.1
308.15 K	1197	368.7
313.15 K	1193.4	371
318.15 K	1189.9	372.9

CCCCCCn1cc[n+](C)c1.F[B-](F)(F)F [1-hexyl-3-methylimidazolium tetrafluoroborate]
Details	mass density, [1] [kg/m3]	molar heat capacity at constant pressure, [2] [J/K/mol]	speed of sound, [1] [m/s]
293.15 K	1148.8	425.1	1532.7
298.15 K	1145.3	427.8	1519.5
303.15 K	1141.8	430.4	1506.9
308.15 K	1138.4	433	1494.5
313.15 K	1135	435.5	1482.3
318.15 K	1131.6	438.1	1470.5
